Assay: recombinant UMI read abundance after kanamycin selection (control-corrected) (log10(CPM+1)); higher = more efficient recombination; extreme values may be limits of the assay; sequences stand for … in AGTGCAGAGAAAATCGGCCAGTTTTCTCTGCCTGCAGTCCGCATGCCGTGGGACCCCTTGGGTTCTAACCTGTTGCCTAGATTTATGCAGCGGACTGCCTTTCTCCCAAAGTGATAAACCGG…AGGTTGGTTTCACT; site = the 11-nt donor
Method in brief: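 Values, expressed as log10(CPM+1), derive from recombinant UMI counts converted to CPM, averaged across replicates and scaled by control-derived factors. Plating was with IPTG (0.07 mM) plus kanamycin or unselected, two replicates each. The screen pooled donor and donor-binding-loop pairs for the IS621 bridge recombinase in Escherichia coli.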
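Further: IS621 bridge recombinase in Escherichia coli cells against a fixed T5 target plasmid.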

Row | Sequence | recombinant UMI read abundance (log10)
1 | AGCTCTGCATGGACCGGTTTTCCCGGTAATCCGTATTTGGG (site AGCTCAGCTCC) | 0.0199
2 | AGCTCTGCATGGACCGGTTTTCCCGGTAATCCGTATTTGGG (site AGCTCCGCTCC) | 0.0101
3 | AGCTCTGCATGGACCGGTTTTCCCGGTAATCCGTATTTGGG (site AGCTCGGCTCC) | 0
4 | AGCTCTGCATGGACCGGTTTTCCCGGTAATCCGTATTTGGG (site AGCTCTGCTCC) | 0.25
5 | AGCTTAGCATGGACCGGTTTTCCCGGTAATCCGTATTTGTT (site AGCATAGCTAA) | 0.00999
6 | AGCTTAGCATGGACCGGTTTTCCCGGTAATCCGTATTTGTT (site AGCCTAGCTAA) | 0.261
7 | AGCTTAGCATGGACCGGTTTTCCCGGTAATCCGTATTTGTT (site AGCGTAGCTAA) | 0.0147
8 | AGCTTAGCATGGACCGGTTTTCCCGGTAATCCGTATTTGTT (site AGCTTAGCTAA) | 0.0106
9 | AGCTTCCCATGGACCGGTTTTCCCGGTAATCCGTATTTGGG (site AGCTTCCCTCC) | 0.0229
10 | AGCTTGCCATGGACCGGTTTTCCCGGTAATCCGTATTTGAT (site AGCTTGCCTAT) | 0.0115
11 | AGGAAGACATGGACCGGTTTTCCCGGTAATCCGTATTTGAC (site AGGAAGACTGT) | 2.64
12 | AGGAAGACATGGACCGGTTTTCCCGGTAATCCGTATTTGAC (site AGGAAGACTTG) | 0.571
13 | AGGAAGACATGGACCGGTTTTCCCGGTAATCCGTATTTGCC (site AGGAAGACTAG) | 0.42
14 | AGGAAGACATGGACCGGTTTTCCCGGTAATCCGTATTTGCC (site AGGAAGACTCG) | 0.723
15 | AGGAAGACATGGACCGGTTTTCCCGGTAATCCGTATTTGCC (site AGGAAGACTGG) | 1.84
16 | AGGAAGACATGGACCGGTTTTCCCGGTAATCCGTATTTGCC (site AGGAAGACTTG) | 1.8
17 | AGGAAGACATGGACCGGTTTTCCCGGTAATCCGTATTTGGT (site AGGAAGACTAC) | 2.1
18 | AGGAAGACATGGACCGGTTTTCCCGGTAATCCGTATTTGGT (site AGGAAGACTTG) | 0
19 | AGGAAGCCATGGACCGGTTTTCCCGGTAATCCGTATTTGCC (site AGGAAGACTTG) | 0
20 | AGGAAGCCATGGACCGGTTTTCCCGGTAATCCGTATTTGCC (site AGGAAGCCTGG) | 0
21 | AGGAATACATGGACCGGTTTTCCCGGTAATCCGTATTTGCA (site AGGAAAACTTG) | 0.656
22 | AGGAATACATGGACCGGTTTTCCCGGTAATCCGTATTTGCA (site AGGAACACTTG) | 1.48
23 | AGGAATACATGGACCGGTTTTCCCGGTAATCCGTATTTGCA (site AGGAAGACTTG) | 0.151

Row | Sequence | recombinant UMI read abundance (log10)
24 | AGGAATACATGGACCGGTTTTCCCGGTAATCCGTATTTGCA (site AGGAATACTTG) | 2.11
25 | AGGAATACATGGACCGGTTTTCCCGGTAATCCGTATTTGGA (site AGGAAGACTTG) | 0.341
26 | AGGAATACATGGACCGGTTTTCCCGGTAATCCGTATTTGGA (site AGGAATACTTC) | 1.69
27 | AGGAATACATGGACCGGTTTTCCCGGTAATCCGTATTTGGG (site AGGAATACTCC) | 0.394
28 | AGGACAACATGGACCGGTTTTCCCGGTAATCCGTATTTGAC (site AGGACAACTGT) | 2.26
29 | AGGACAACATGGACCGGTTTTCCCGGTAATCCGTATTTGAC (site AGGACCACTGT) | 0
30 | AGGACAACATGGACCGGTTTTCCCGGTAATCCGTATTTGAC (site AGGACGACTGT) | 0
31 | AGGACAACATGGACCGGTTTTCCCGGTAATCCGTATTTGAC (site AGGACTACTGT) | 0
32 | AGGACGACATGGACCGGTTTTCCCGGTAATCCGTATTTGAC (site AGGACAACTGT) | 2.09
33 | AGGACGACATGGACCGGTTTTCCCGGTAATCCGTATTTGAC (site AGGACCACTGT) | 0.378
34 | AGGACGACATGGACCGGTTTTCCCGGTAATCCGTATTTGAC (site AGGACGACTGT) | 3.14
35 | AGGACGACATGGACCGGTTTTCCCGGTAATCCGTATTTGAC (site AGGACTACTGT) | 0
36 | AGGACGACATGGACCGGTTTTCCCGGTAATCCGTATTTGCT (site AGGAAGACTTG) | 0
37 | AGGACGACATGGACCGGTTTTCCCGGTAATCCGTATTTGCT (site AGGACGACTAG) | 2.52
38 | AGGACTACATGGACCGGTTTTCCCGGTAATCCGTATTTGAA (site AGGACTACTAT) | 1.41
39 | AGGACTACATGGACCGGTTTTCCCGGTAATCCGTATTTGAA (site AGGACTACTCT) | 0.127
40 | AGGACTACATGGACCGGTTTTCCCGGTAATCCGTATTTGAA (site AGGACTACTGT) | 0.477
41 | AGGACTACATGGACCGGTTTTCCCGGTAATCCGTATTTGAA (site AGGACTACTTT) | 1.13
42 | AGGACTACATGGACCGGTTTTCCCGGTAATCCGTATTTGCC (site AGGACTACTGA) | 0
43 | AGGACTACATGGACCGGTTTTCCCGGTAATCCGTATTTGCC (site AGGACTACTGC) | 0
44 | AGGACTACATGGACCGGTTTTCCCGGTAATCCGTATTTGCC (site AGGACTACTGG) | 2.23
45 | AGGACTACATGGACCGGTTTTCCCGGTAATCCGTATTTGCC (site AGGACTACTGT) | 0
46 | AGGACTGCATGGACCGGTTTTCCCGGTAATCCGTATTTGAG (site AGGACTGCTCT) | 1.79

Row | Sequence | recombinant UMI read abundance (log10)
47 | AGGAGGACATGGACCGGTTTTCCCGGTAATCCGTATTTGCA (site AGGAAGACTTG) | 2.35
48 | AGGAGGACATGGACCGGTTTTCCCGGTAATCCGTATTTGCA (site AGGACGACTTG) | 0.4
49 | AGGAGGACATGGACCGGTTTTCCCGGTAATCCGTATTTGCA (site AGGAGGACTTG) | 2.56
50 | AGGAGGACATGGACCGGTTTTCCCGGTAATCCGTATTTGCA (site AGGATGACTTG) | 0
51 | AGGAGTACATGGACCGGTTTTCCCGGTAATCCGTATTTGAC (site AGGAATACTGT) | 1.29
52 | AGGAGTACATGGACCGGTTTTCCCGGTAATCCGTATTTGAC (site AGGACTACTGT) | 0.225
53 | AGGAGTACATGGACCGGTTTTCCCGGTAATCCGTATTTGAC (site AGGAGTACTGT) | 2.08
54 | AGGAGTACATGGACCGGTTTTCCCGGTAATCCGTATTTGAC (site AGGATTACTGT) | 0.00638
55 | AGGAGTACATGGACCGGTTTTCCCGGTAATCCGTATTTGTC (site AGGAGTACTGA) | 2.17
56 | AGGAGTCCATGGACCGGTTTTCCCGGTAATCCGTATTTGAA (site AGGAGTCCTTT) | 1.07
57 | AGGATAACATGGACCGGTTTTCCCGGTAATCCGTATTTGGC (site AGGATAACTGC) | 2.73
58 | AGGATGACATGGACCGGTTTTCCCGGTAATCCGTATTTGTA (site AGGAAGACTTG) | 0
59 | AGGATGACATGGACCGGTTTTCCCGGTAATCCGTATTTGTA (site AGGATGACTTA) | 2.6
60 | AGGATGGCATGGACCGGTTTTCCCGGTAATCCGTATTTGGT (site AGGATGGCTAC) | 1.79
61 | AGGATTCCATGGACCGGTTTTCCCGGTAATCCGTATTTGTT (site AGGATTCCTAA) | 0.226
62 | AGGATTCCATGGACCGGTTTTCCCGGTAATCCGTATTTGTT (site CGGAATCCTAA) | 0.0087
63 | AGGCAACCATGGACCGGTTTTCCCGGTAATCCGTATTTGGG (site AGGCAACCTCC) | 0.112
64 | AGGCCGACATGGACCGGTTTTCCCGGTAATCCGTATTTGCA (site AGGAAGACTTG) | 0
65 | AGGCCGACATGGACCGGTTTTCCCGGTAATCCGTATTTGCA (site AGGCCGACTTG) | 1.81
66 | AGGCCTGCATGGACCGGTTTTCCCGGTAATCCGTATTTGAA (site AGGCCTGCTTT) | 0.996
67 | AGGCTTCCATGGACCGGTTTTCCCGGTAATCCGTATTTGCG (site AGGCTTCCTCG) | 0.745
68 | AGGGAGACATGGACCGGTTTTCCCGGTAATCCGTATTTGCA (site AGGAAGACTTG) | 0.796

Reference: the supplement of paper PMC11208160
